Results reported in patent publication US6569881B1, “Substituted benzimidazole, the production thereof and the use thereof as means against parasitic protozoa” (Bayer Aktiengesellschaft, priority 1999, dated 2003).

What was measured:
Type in all cases: in vivo, chicken chicks
Eimeria maxima = experiment: Cage experiments coccidiosis/chicks, Eimeria maxima part of the mixed infection; conditions: for Efficacy against Eimeria maxima (grade): second symbol of cell; as to Efficacy against Eimeria maxima (grade): key: 2 = complete action; 1 = weak action; 0 = inactive; D = death
Description: (§1) The efficacy of the compounds according to the invention can be confirmed, for example, in cage experiments using the following experimental arrangement, in which the animals are treated with the respective individual components and with the mixtures of the individual components.
(§2) An active compound-containing feed is prepared in such a way that the required amount of active compound is thoroughly mixed with a nutritionally balanced animal feed, e.g. with the chick feed indicated below.
(§3) 8 to 12 day-old male chicken chicks raised under coccidea-free conditions (e.g. LSL Brinkschulte/Senden) receive the compounds according to the invention (test substances) from 3 days before (day -3) the infection (=a.i.) until 8 (9) days after the infection (=p.i.) with the feed in the concentration indicated in ppm. Three animals are kept in each cage. Per dose, one to a number of groups of this type are employed. Infection is carried out by means of a stomach tube directly into the crop using approximately 100,000 sporulated oocysts of Eimeria acervulina and with in each case approximately 30,000 oocysts of E. maxima and 40,000 sporulated oocysts of E. tenella. These are highly virulent strains. The exact infectious dose is adjusted such that if possible one of three experimentally infected untreated chicks dies due to infection. For the assessment of the efficacy, the following criteria are taken into consideration: weight increase from the start of the experiment to the end of the experiment, death rate due to infection, macroscopic assessment of the faeces with respect to diarrhoea and excretion of blood on days 5 and 7 p.i. (grade 0 to 6), macroscopic grade of the intestinal mucous membrane, in particular of the cecums (grade 0 to 6) and the oocyst excretion and also the proportion (in %) of the oocysts sporulating within 24 hours. The number of oocysts in the faeces was determined with the aid of the McMaster counting chamber (see Engelbrecht and coworkers “Parasitologische Arbeitsmethoden in Medizin und Veterinärmedizin, [Parasitological working methods in medicine and veterinary medicine] Akademie-Verlag, Berlin (1965)). The individual findings are related to the untreated noninfected control groups and an overall grade is calculated (cf. A. Haberkorn (1986), pp. 263 to 270 in Research in Avian Coccidiosis ed L. R. McDougald, L. P. Joyner, P. L. Long Proceedings of the Georgia Coccidiosis Conference Nov, 18-20, 1985 Athens/Ga. USA).
(§4) In the columns “dropping scores”, “lesion score” and “oocyst control”, individual details of the action are given.

[1] = tested on: Eimeria acervulina, Eimeria maxima and Eimeria tenella; experiment: Cage experiments coccidiosis/chicks, mixed experimental infection
Description: as §1, §2, §3
In the column “ppm”, the concentration of the active compound employed in the feed is indicated in ppm.
In the column “mortality”, the percentage of the animals which have died is indicated under % and the number of the animals which have died/animals employed in the experiment is indicated under n.
In the column “weight % of not inf. control”, the ratio of the weight of the treated animals to the weight of the noninfected control group is indicated.
as §4
In the column “% efficacy”, the overall rating is assessed; 0% means no action, 100% means complete action.

Eimeria tenella = experiment: Cage experiments coccidiosis/chicks, Eimeria tenella part of the mixed infection; conditions: for Efficacy against Eimeria tenella (grade): third symbol of cell; as to Efficacy against Eimeria tenella (grade): key: 2 = complete action; 1 = weak action; 0 = inactive; D = death
Description: as §1, §2, §3, §4

Eimeria acervulina = experiment: Cage experiments coccidiosis/chicks, Eimeria acervulina part of the mixed infection; conditions: for Efficacy against Eimeria acervulina (grade): first symbol of cell; as to Efficacy against Eimeria acervulina (grade): key: 2 = complete action; 1 = weak action; 0 = inactive; D = death
Description: as §1, §2, §3, §4

[2] = 5 ppm in feed, listed as Ex. 15
[3] = 10 ppm in feed, listed as Ex. 15

SMILES: Cc1oc(=O)oc1Cn1c(C(F)(F)F)nc2c(Br)cc3c(c21)OC(F)(F)C(F)(F)O3 [Example 14]
- oocyst in % of inf. control max. (Eimeria maxima; 2.5 ppm in feed): 0%
- oocyst in % of inf. control max. (Eimeria maxima; 5 ppm): 57 % of inf. control
- oocyst in % of inf. control max. (Eimeria maxima; 5 ppm in feed): 6%
- oocyst in % of inf. control max. (Eimeria maxima; 7.5 ppm): 1 % of inf. control
- oocyst in % of inf. control max. (Eimeria maxima; 10 ppm): >100 % of inf. control
- oocyst in % of inf. control max. (Eimeria maxima; 10 ppm in feed): 0%
- Efficacy against Eimeria maxima (grade) (Eimeria maxima; Dose 5 ppm): 2
- Efficacy against Eimeria maxima (grade) (Eimeria maxima; Dose 10 ppm): 2
- % efficacy tot. ([1]; 2.5 ppm in feed): 30%
- mortality % ([1]; 2.5 ppm in feed): 0%
- mortality n (died/employed) ([1]; 2.5 ppm in feed): 0/3
- oocyst in % of inf. control tot. ([1]; 2.5 ppm in feed): 35%
- weight % of not inf. control ([1]; 2.5 ppm in feed): 44%
- dropping scores ([1]; 2.5 ppm in feed, grade 0 to 6): 6
- lesion score ([1]; 2.5 ppm in feed, grade 0 to 6): 6
- % efficay tot. ([1]; 5 ppm): 0%
- dropping scores ([1]; 5 ppm): 6
- lesion score ([1]; 5 ppm): 6
- mortality % ([1]; 5 ppm): 33%
- mortality n ([1]; 5 ppm): 1/3
- oocyst in % of inf. control tot. ([1]; 5 ppm): 67 % of inf. control
- weight % of not inf. control ([1]; 5 ppm): 29 % of not inf. control
- % efficacy tot. ([1]; 5 ppm in feed): 66%
- mortality % ([1]; 5 ppm in feed): 33%
- mortality n (died/employed) ([1]; 5 ppm in feed): 1/3
- oocyst in % of inf. control tot. ([1]; 5 ppm in feed): 2%
- weight % of not inf. control ([1]; 5 ppm in feed): 90.6%
- dropping scores ([1]; 5 ppm in feed, grade 0 to 6): 6
- lesion score ([1]; 5 ppm in feed, grade 0 to 6): 5.5
- % efficay tot. ([1]; 7.5 ppm): 45%
- dropping scores ([1]; 7.5 ppm): 6
- lesion score ([1]; 7.5 ppm): 6
- mortality % ([1]; 7.5 ppm): 0%
- mortality n ([1]; 7.5 ppm): 0/3
- oocyst in % of inf. control tot. ([1]; 7.5 ppm): 15 % of inf. control
- weight % of not inf. control ([1]; 7.5 ppm): 61 % of not inf. control
- % efficay tot. ([1]; 10 ppm): 45%
- dropping scores ([1]; 10 ppm): 3
- lesion score ([1]; 10 ppm): 6
- mortality % ([1]; 10 ppm): 0%
- mortality n ([1]; 10 ppm): 0/3
- oocyst in % of inf. control tot. ([1]; 10 ppm): 16 % of inf. control
- weight % of not inf. control ([1]; 10 ppm): 79 % of not inf. control
- % efficacy tot. ([1]; 10 ppm in feed): 69%
- mortality % ([1]; 10 ppm in feed): 0%
- mortality n (died/employed) ([1]; 10 ppm in feed): 0/3
- oocyst in % of inf. control tot. ([1]; 10 ppm in feed): 4%
- weight % of not inf. control ([1]; 10 ppm in feed): 81%
- dropping scores ([1]; 10 ppm in feed, grade 0 to 6): 4
- lesion score ([1]; 10 ppm in feed, grade 0 to 6): 6
- oocyst in % of inf. control ten. (Eimeria tenella; 2.5 ppm in feed): 12%
- oocyst in % of inf. control ten. (Eimeria tenella; 5 ppm): 44 % of inf. control
- oocyst in % of inf. control ten. (Eimeria tenella; 5 ppm in feed): 1%
- oocyst in % of inf. control ten. (Eimeria tenella; 7.5 ppm): 15 % of inf. control
- oocyst in % of inf. control ten. (Eimeria tenella; 10 ppm): 26 % of inf. control
- oocyst in % of inf. control ten. (Eimeria tenella; 10 ppm in feed): 7%
- Efficacy against Eimeria tenella (grade) (Eimeria tenella; Dose 5 ppm): 1
- Efficacy against Eimeria tenella (grade) (Eimeria tenella; Dose 10 ppm): 1
- oocyst in % of inf. control ac. (Eimeria acervulina; 2.5 ppm in feed): 92%
- oocyst in % of inf. control ac. (Eimeria acervulina; 5 ppm): 80 % of inf. control
- oocyst in % of inf. control ac. (Eimeria acervulina; 5 ppm in feed): 3%
- oocyst in % of inf. control ac. (Eimeria acervulina; 7.5 ppm): 16 % of inf. control
- oocyst in % of inf. control ac. (Eimeria acervulina; 10 ppm): 2 % of inf. control
- oocyst in % of inf. control ac. (Eimeria acervulina; 10 ppm in feed): 1%
- Efficacy against Eimeria acervulina (grade) (Eimeria acervulina; Dose 5 ppm): 2
- Efficacy against Eimeria acervulina (grade) (Eimeria acervulina; Dose 10 ppm): 2

SMILES: Cc1oc(=O)oc1Cn1c(C(F)(F)F)nc2c(Cl)cc3c(c21)OC(F)(F)C(F)(F)O3 [Example 15]
- oocyst in % of inf. control max. (Eimeria maxima; 2.5 ppm in feed): 0%
- oocyst in % of inf. control max. (Eimeria maxima; 5 ppm in feed): 2%
- oocyst in % of inf. control max. (Eimeria maxima; [2]): 0%
- oocyst in % of inf. control max. (Eimeria maxima; 7.5 ppm in feed): 0%
- oocyst in % of inf. control max. (Eimeria maxima; 10 ppm in feed): 0%
- Efficacy against Eimeria maxima (grade) (Eimeria maxima; Dose 5 ppm): 0
- Efficacy against Eimeria maxima (grade) (Eimeria maxima; Dose 10 ppm): 1
- Efficacy against Eimeria maxima (grade) (Eimeria maxima; Dose 25 ppm): 2
- % efficacy tot. ([1]; 2.5 ppm in feed): 43%
- mortality % ([1]; 2.5 ppm in feed): 0%
- mortality n (died/employed) ([1]; 2.5 ppm in feed): 0/3
- oocyst in % of inf. control tot. ([1]; 2.5 ppm in feed): 48%
- weight % of not inf. control ([1]; 2.5 ppm in feed): 80%
- dropping scores ([1]; 2.5 ppm in feed, grade 0 to 6): 1
- lesion score ([1]; 2.5 ppm in feed, grade 0 to 6): 6
- % efficacy tot. ([1]; 5 ppm in feed): 75%
- mortality % ([1]; 5 ppm in feed): 0%
- mortality n (died/employed) ([1]; 5 ppm in feed): 0/3
- oocyst in % of inf. control tot. ([1]; 5 ppm in feed): 1%
- weight % of not inf. control ([1]; 5 ppm in feed): 85%
- dropping scores ([1]; 5 ppm in feed, grade 0 to 6): 6
- lesion score ([1]; 5 ppm in feed, grade 0 to 6): 1
- lesion score ([1]; 5 ppm in feed, grade 0 to 6, listed as Ex. 15): 6
- % efficacy tot. [1, 2]: 23%
- oocyst in % of inf. control tot. [1, 2]: 31%
- weight % of not inf. control [1, 2]: 75%
- % efficacy tot. ([1]; 7.5 ppm in feed): 60%
- mortality % ([1]; 7.5 ppm in feed): 0%
- mortality n (died/employed) ([1]; 7.5 ppm in feed): 0/3
- oocyst in % of inf. control tot. ([1]; 7.5 ppm in feed): 13%
- weight % of not inf. control ([1]; 7.5 ppm in feed): >100%
- dropping scores ([1]; 7.5 ppm in feed, grade 0 to 6): 6
- lesion score ([1]; 7.5 ppm in feed, grade 0 to 6): 2
- % efficacy tot. ([1]; 10 ppm in feed): 91%
- mortality % ([1]; 10 ppm in feed): 0%
- mortality n (died/employed) ([1]; 10 ppm in feed): 0/3
- oocyst in % of inf. control tot. ([1]; 10 ppm in feed): 0%
- weight % of not inf. control ([1]; 10 ppm in feed): 82%
- dropping scores ([1]; 10 ppm in feed, grade 0 to 6): 0
- lesion score ([1]; 10 ppm in feed, grade 0 to 6): 0
- lesion score ([1]; 10 ppm in feed, grade 0 to 6, listed as Ex. 15): 1
- % efficacy tot. [1, 3]: 89%
- oocyst in % of inf. control tot. [1, 3]: 1%
- weight % of not inf. control [1, 3]: 92%
- mortality % ([1]; 25 ppm in feed): 100%
- mortality n (died/employed) ([1]; 25 ppm in feed): 3/3
- dropping scores ([1]; 25 ppm in feed, grade 0 to 6): 0
- oocyst in % of inf. control ten. (Eimeria tenella; 2.5 ppm in feed): 48%
- oocyst in % of inf. control ten. (Eimeria tenella; 5 ppm in feed): 0%
- oocyst in % of inf. control ten. (Eimeria tenella; [2]): 23%
- oocyst in % of inf. control ten. (Eimeria tenella; 7.5 ppm in feed): 12%
- oocyst in % of inf. control ten. (Eimeria tenella; 10 ppm in feed): 0%
- oocyst in % of inf. control ten. (Eimeria tenella; [3]): 1%
- Efficacy against Eimeria tenella (grade) (Eimeria tenella; Dose 5 ppm): 1
- Efficacy against Eimeria tenella (grade) (Eimeria tenella; Dose 10 ppm): 2
- Efficacy against Eimeria tenella (grade) (Eimeria tenella; Dose 25 ppm): 1
- oocyst in % of inf. control ac. (Eimeria acervulina; 2.5 ppm in feed): 48%
- oocyst in % of inf. control ac. (Eimeria acervulina; 5 ppm in feed): 2%
- oocyst in % of inf. control ac. (Eimeria acervulina; [2]): 49%
- oocyst in % of inf. control ac. (Eimeria acervulina; 7.5 ppm in feed): 16%
- oocyst in % of inf. control ac. (Eimeria acervulina; 10 ppm in feed): 0%
- oocyst in % of inf. control ac. (Eimeria acervulina; [3]): 2%
- Efficacy against Eimeria acervulina (grade) (Eimeria acervulina; Dose 5 ppm): 1
- Efficacy against Eimeria acervulina (grade) (Eimeria acervulina; Dose 10 ppm): 2
- Efficacy against Eimeria acervulina (grade) (Eimeria acervulina; Dose 25 ppm): 2
